US12187684B2, “Benzimidazole derivatives as modulators of retinoid-related orphan receptor gamma (RORγ) and pharmaceutical use thereof” (Jiangsu Hengrui Medicine Co., Ltd., priority 2018, dated 2025)

Assays:
[1] = test system: IL-17 production, human PBMC cells; assay: IL-17 production assay using human PBMC; format: cell-based; settings: human PBMC stimulated by cytostim for 3 days, IL-17 ELISA of supernatant
Description: Test Example 2. IL-17 Production Assay Using Human PBMC
• 1. Human PBMC cells (Cat No. 70025.1, Zenbio) • 2. Lymphocyte medium (Cat No. LYMPH-1, Zenbio) • 3. TexMACS (Cat No. 130-097-196, Miltenyi) • 4. Cytostim-human (Cat No. 1130-092-173, Miltenyi) • 5. Human IL-17 ELISA (Cat No. D1700, R&D systems) • 6. Tecan Infinite M1000 plate reader (Tecan)
Experimental Procedure for IL-17 Production Assay
Cryopreserved peripheral blood human mononuclear cells (PBMCs) were rapidly thawed in warmed Lymphocyte media, and centrifuged cell suspension at 1000 rpm for 10 minutes. The supernatant was removed, and the cell pellets were gently resuspended in TexMACS media.
Human PBMC cells in TexMACS media were plated at 1×10^5 each well in triplicate. The test compounds at various concentrations or vehicle control (<0.5% DMSO) were added into cell culture. The cells were stimulated by cytostim (10 μL/mL) for 3 days in a humidified, 5% CO2 incubator at 37° C.
After incubation, the cell culture supernatant was harvested, and then removed particulates by centrifugation. Human IL-17 in the supernatant was measured using human IL-17 ELISA kit according to the manufacturer's protocol. IC50 values were determined using GraphPad Prism by plotting the compounds concentration versus percent inhibition.

RORγ LBD-GST tagged = target: T1, RORγ LBD-GST tagged (Homo sapiens, UniProt P51449); assay: LanthaScreen TR-FRET RORγ coactivator assay; format: biochemical; settings: Fluorescein-D22 coactivator peptide, 1 hour room temperature
T1 construct: RORγ LBD-GST tagged (Cat No. RORC-114H, Creative Biomart); purchased Creative Biomart RORC-114H
T1 sequence (P51449 269-508 limits assumed): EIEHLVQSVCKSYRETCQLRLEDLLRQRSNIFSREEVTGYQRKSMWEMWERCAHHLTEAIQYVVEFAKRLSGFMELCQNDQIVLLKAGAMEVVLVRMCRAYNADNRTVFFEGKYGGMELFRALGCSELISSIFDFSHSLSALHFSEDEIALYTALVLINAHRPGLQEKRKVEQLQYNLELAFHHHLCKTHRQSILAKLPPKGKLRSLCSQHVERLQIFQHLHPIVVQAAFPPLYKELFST
Method in brief: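 GST-tagged RORγ LBD (25 ng/reaction) was incubated in coregulator buffer D with 5 mM DTT and compound (top 3 μM, 7-fold steps, 7 doses), then with a mix containing 0.6 μM fluorescein-D22 peptide and 8 nM Tb anti-GST antibody. After 1 h at room temperature in the dark, 520/495 nm TR-FRET was read. IC50 came from log concentration versus percent inhibition.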

Structure (SMILES)	IC50 (RORγ LBD-GST tagged) [µM]	IC50 [1] [µM]
CCS(=O)(=O)c1ccc(C(CCO)c2nc3c(Cl)c(N4CCC(F)(F)CC4)c(Cl)cc3[nH]2)cc1 (single isomer, unassigned) [the shorter retention time of 139 and 140] [3-(4,6-dichloro-5-(4,4-difluoropiperidin-1-yl)-1H-benzo[d]imidazol-2-yl)-3-(4-(ethylsulfonyl)phenyl)propan-1-ol]	–	0.214
CC(C)Oc1ccccc1-c1cc2nc(C(CC(N)=O)c3ccc(S(=O)(=O)CC4CC4)cc3)[nH]c2cc1Cl (single isomer, unassigned) [the shorter retention time of 148 and 149] [3-(6-chloro-5-(2-isopropoxyphenyl)-1H-benzo[d]imidazol-2-yl)-3-(4-((cyclopropylmethyl)sulfonyl)phenyl)propanamide]	–	0.555
O=S(=O)(CC1CC1)c1ccc(C(CCO)c2nc3cc(-c4ccccc4OC(F)F)c(Cl)cc3[nH]2)cc1 (single isomer, unassigned) [the shorter retention time of 155 and 156] [3-(6-chloro-5-(2-(difluoromethoxy)phenyl)-1H-benzo[d]imidazol-2-yl)-3-(4-((cyclopropylmethyl)sulfonyl)phenyl)propan-1-ol]	–	0.135
NC(=O)CC(c1ccc(S(=O)(=O)CC2CC2)cc1)c1nc2cc(-c3ccccc3OC(F)F)c(Cl)cc2[nH]1 (single isomer, unassigned) [the shorter retention time of 152 and 153] [3-(6-chloro-5-(2-(difluoromethoxy)phenyl)-1H-benzo[d]imidazol-2-yl)-3-(4-((cyclopropylmethyl)sulfonyl)phenyl)propanamide]	–	0.86
CCS(=O)(=O)c1ccc(C(CC(N)=O)c2nc3c(Cl)c(N4CCC(F)(F)CC4)c(Cl)cc3[nH]2)cc1 (single isomer, unassigned) [the shorter retention time of 146 and 147] [3-(4,6-dichloro-5-(4,4-difluoropiperidin-1-yl)-1H-benzo[d]imidazol-2-yl)-3-(4-(ethylsulfonyl)phenyl)propanamide]	–	0.315
CCS(=O)(=O)c1ccc(C(NC(=O)c2c(C)noc2C)c2nc3c(Cl)c(-c4ccccc4OC(F)F)c(Cl)cc3[nH]2)cc1 (centres unmarked) [Example 42, N-((4,6-dichloro-5-(2-(difluoromethoxy)phenyl)-1H-benzo[d]imidazol-2-yl)(4-(ethylsulfonyl)phenyl)methyl)-3,5-dimethylisoxazole-4-carboxamide]	0.113	–
CCS(=O)(=O)c1ccc(C(NC(=O)COC)c2nc3c(Cl)c(-c4ccccc4OC(F)F)c(Cl)cc3[nH]2)cc1 (centres unmarked) [Example 41, N-((4,6-dichloro-5-(2-(difluoromethoxy)phenyl)-1H-benzo[d]imidazol-2-yl)(4-(ethylsulfonyl)phenyl)methyl)-2-methoxyacetamide]	0.683	–
CCOc1ccccc1-c1c(Cl)cc2[nH]c(C(O)c3ccc(S(=O)(=O)CC)cc3)nc2c1Cl (centres unmarked) [Example 18, (4,6-dichloro-5-(2-ethoxyphenyl)-1H-benzo[d]imidazol-2-yl)(4-(ethylsulfonyl)phenyl)methanol]	0.013	–
CCCS(=O)(=O)c1ccc(C(O)c2nc3c(Cl)c(-c4ccccc4OC(F)(F)F)c(Cl)cc3[nH]2)cc1 (centres unmarked) [Example 52, (4,6-dichloro-5-(2-(trifluoromethoxy)phenyl)-1H-benzo[d]imidazol-2-yl)(4-(propylsulfonyl)phenyl)methanol]	0.135	–
CS(=O)(=O)c1ccc(Cc2nc3c(Cl)c(-c4ccccc4OC(F)F)c(Cl)cc3[nH]2)cc1 [Example 47, 4,6-dichloro-5-(2-(difluoromethoxy)phenyl)-2-(4-(methylsulfonyl)benzyl)-1H-benzo[d]imidazole]	0.196	–
CCS(=O)(=O)c1ccc(C(CO)c2nc3c(Cl)c(-c4ccccc4F)c(Cl)cc3[nH]2)cc1 (centres unmarked) [Example 11, 2-(4,6-dichloro-5-(2-fluorophenyl)-1H-benzo[d]imidazol-2-yl)-2-(4-(ethylsulfonyl)phenyl)ethanol]	0.242	–
CCS(=O)(=O)c1ccc(C(O)c2nc3c(Cl)c(-c4ccccc4)c(Cl)cc3[nH]2)cc1 (centres unmarked) [Example 2, (4,6-dichloro-5-phenyl-1H-benzo[d]imidazol-2-yl)(4-(ethylsulfonyl)phenyl)methanol]	0.467	–
COCCS(=O)(=O)c1ccc(C(O)c2nc3c(Cl)c(-c4ccccc4OC(F)(F)F)c(Cl)cc3[nH]2)cc1 (centres unmarked) [Example 55, (4,6-dichloro-5-(2-(trifluoromethoxy)phenyl)-1H-benzo[d]imidazol-2-yl)(4-((2-methoxyethyl)sulfonyl)phenyl)methanol]	0.194	–
CCS(=O)(=O)c1ccc(Cc2nc3c(Cl)c(-c4ccccc4OC(C)C)c(Cl)cc3[nH]2)cc1 [Example 8, 4,6-dichloro-2-(4-(ethylsulfonyl)benzyl)-5-(2-isopropoxyphenyl)-1H-benzo[d]imidazole]	0.903	–
CCS(=O)(=O)c1ccc(C(O)c2nc3c(Cl)c(-c4ccsc4)c(Cl)cc3[nH]2)cc1 (centres unmarked) [Example 26, (4,6-dichloro-5-(thiophen-3-yl)-1H-benzo[d]imidazol-2-yl)(4-(ethylsulfonyl)phenyl)methanol]	0.465	–

The next lines start with results.

IC50 (RORγ LBD-GST tagged) [µM]	Structure (SMILES)	IC50 [1] [µM]
0.046	O=S(=O)(CC1CC1)c1ccc(C(O)c2nc3c(Cl)c(-c4ccccc4OC(F)(F)F)c(Cl)cc3[nH]2)c(F)c1 (centres unmarked) [Example 82, (4-((cyclopropylmethyl)sulfonyl)-2-fluorophenyl)(4,6-dichloro-5-(2-(trifluoromethoxy)phenyl)-1H-benzo[d]imidazol-2-yl)methanol]	–
0.158	CS(=O)(=O)c1ccc(C(O)c2nc3c(Cl)c(-c4ccccc4OC(F)(F)F)c(Cl)cc3[nH]2)c(Cl)c1 (centres unmarked) [Example 103, (2-chloro-4-(methylsulfonyl)phenyl)(4,6-dichloro-5-(2-(trifluoromethoxy)phenyl)-1H-benzo[d]imidazol-2-yl)methanol]	–
0.004	CCS(=O)(=O)c1ccc(Cc2nc3c(Cl)c(-c4ccccc4OC(F)F)c(Cl)cc3[nH]2)c(Cl)c1 [Example 89, 4,6-dichloro-2-(2-chloro-4-(ethylsulfonyl)benzyl)-5-(2-(difluoromethoxy)phenyl)-1H-benzo[d]imidazole]	–
0.006	O=S(=O)(CC1CC1)c1ccc(C(O)c2nc3c(Cl)c(-c4ccccc4F)c(Cl)cc3[nH]2)cc1 (centres unmarked) [Example 75, (4-((cyclopropylmethyl)sulfonyl)phenyl)(4,6-dichloro-5-(2-fluorophenyl)-1H-benzo[d]imidazol-2-yl)methanol]	–
0.007	O=S(=O)(CC1CC1)c1ccc(Cc2nc3c(Cl)c(-c4ccccc4OC(F)F)c(Cl)cc3[nH]2)c(F)c1 [Example 98, 4,6-dichloro-2-(4-((cyclopropylmethyl)sulfonyl)-2-fluorobenzyl)-5-(2-(difluoromethoxy)phenyl)-1H-benzo[d]imidazole]	–
0.337	CC(C)S(=O)(=O)c1ccc(Cc2nc3c(Cl)c(-c4ccccc4OC(F)(F)F)c(Cl)cc3[nH]2)cc1 [Example 104]	–
0.235	CCS(=O)(=O)c1ccc(C(CO)c2nc3c(C)c(-c4ccccc4C(F)(F)F)c(C)cc3[nH]2)cc1 (centres unmarked) [Example 116, 2-(4,6-dimethyl-5-(2-(trifluoromethyl)phenyl)-1H-benzo[d]imidazol-2-yl)-2-(4-(ethylsulfonyl)phenyl)ethanol]	–
0.067	O=S(=O)(CC1CC1)c1ccc(C(O)c2nc3c(Cl)c(-c4ccccc4OC(F)(F)F)c(Cl)cc3[nH]2)c(Cl)c1 (centres unmarked) [Example 92, (2-chloro-4-((cyclopropylmethyl)sulfonyl)phenyl)(4,6-dichloro-5-(2-(trifluoromethoxy)phenyl)-1H-benzo[d]imidazol-2-yl)methanol]	–
0.001	N#Cc1ccccc1-c1c(Cl)cc2[nH]c(C(O)c3ccc(S(=O)(=O)CC4CC4)cc3)nc2c1Cl (centres unmarked) [Example 97, 2-(4,6-dichloro-2-((4-((cyclopropylmethyl)sulfonyl)phenyl)(hydroxy)methyl)-1H-benzo[d]imidazol-5-yl)benzonitrile]	–
0.015	O=S(=O)(c1ccc(Cc2nc3c(Cl)c(-c4ccccc4C(F)(F)F)c(Cl)cc3[nH]2)cc1)C(F)(F)F [Example 65, 4,6-dichloro-5-(2-(trifluoromethyl)phenyl)-2-(4-((trifluoromethyl)sulfonyl)benzyl)-1H-benzo[d]imidazole]	–
0.075	O=S(=O)(CC1CC1)c1ccc(Cc2nc3c(Cl)c(-c4ccccc4Cl)c(Cl)cc3[nH]2)cc1 [Example 93, 4,6-dichloro-5-(2-chlorophenyl)-2-(4-((cyclopropylmethyl)sulfonyl)benzyl)-1H-benzo[d]imidazole]	–
